Measured values from ChEMBL document CHEMBL1201862, “PubChem BioAssay data set” (2004).
Each block holds one molecule with its values, some of them ahead of it. Active and inactive are the calls of the source.

What was measured:
[1] = target: Neurotensin receptor type 1 (Homo sapiens, UniProt P30989); assay type: functional;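 note: Image-based confirmatory dose-response assay measuring agonist activity at NTR1; NTR1-expressing U2OS osteosarcoma cells imaged for beta-arrestin GFP spot formation; agonist potency where compounds increase beta-arrestin recruitment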
Melanocortin receptor 4 = Melanocortin receptor 4 (Homo sapiens, UniProt P32245); assay type: functional, cell-based;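 note: Cell-based assay with luminescence read-out, confirmatory dose-response testing for agonist activity of biased ligands at MC4R; human U2OS cells with tagged receptor and beta-arrestin; potency of agonists that increase receptor coupling to beta-arrestin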
[2] = target: T1, Sentrin-specific protease 8 (Homo sapiens, UniProt Q96LD8); assay: SENP8 protease inhibitors, SAR follow-up, biochemical, luminescence, set 2 (AID 588601); assay type: functional
T1 sequence (Q96LD8 whole entry): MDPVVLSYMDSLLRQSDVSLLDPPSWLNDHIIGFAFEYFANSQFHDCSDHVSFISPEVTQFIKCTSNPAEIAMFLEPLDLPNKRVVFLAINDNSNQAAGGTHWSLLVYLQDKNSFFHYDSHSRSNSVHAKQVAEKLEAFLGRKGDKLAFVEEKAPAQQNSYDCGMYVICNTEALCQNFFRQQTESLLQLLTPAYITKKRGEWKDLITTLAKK

Caspase-3 = target: T2, Caspase-3 (Homo sapiens, UniProt P42574); assay: caspase-3 inhibitors as off-family protease, SAR follow-up, selectivity assay for SENP protease inhibitor project, biochemical, luminescence, set 2 (AID 588599); assay type: functional
T2 sequence (P42574 whole entry): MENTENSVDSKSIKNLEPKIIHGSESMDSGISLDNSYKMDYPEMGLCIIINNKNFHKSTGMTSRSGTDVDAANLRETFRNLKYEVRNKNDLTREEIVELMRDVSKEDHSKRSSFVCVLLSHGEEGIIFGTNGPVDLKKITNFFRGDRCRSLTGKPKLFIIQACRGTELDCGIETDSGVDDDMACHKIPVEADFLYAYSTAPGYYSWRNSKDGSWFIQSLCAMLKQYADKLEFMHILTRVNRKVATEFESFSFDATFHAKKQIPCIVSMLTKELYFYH

[3] = target: T3, Sentrin-specific protease 6 (Homo sapiens, UniProt Q9GZR1); assay: SENP6 protease inhibitors, SAR follow-up, biochemical, luminescence, set 2 (AID 588598); assay type: functional
T3 sequence (Q9GZR1 whole entry): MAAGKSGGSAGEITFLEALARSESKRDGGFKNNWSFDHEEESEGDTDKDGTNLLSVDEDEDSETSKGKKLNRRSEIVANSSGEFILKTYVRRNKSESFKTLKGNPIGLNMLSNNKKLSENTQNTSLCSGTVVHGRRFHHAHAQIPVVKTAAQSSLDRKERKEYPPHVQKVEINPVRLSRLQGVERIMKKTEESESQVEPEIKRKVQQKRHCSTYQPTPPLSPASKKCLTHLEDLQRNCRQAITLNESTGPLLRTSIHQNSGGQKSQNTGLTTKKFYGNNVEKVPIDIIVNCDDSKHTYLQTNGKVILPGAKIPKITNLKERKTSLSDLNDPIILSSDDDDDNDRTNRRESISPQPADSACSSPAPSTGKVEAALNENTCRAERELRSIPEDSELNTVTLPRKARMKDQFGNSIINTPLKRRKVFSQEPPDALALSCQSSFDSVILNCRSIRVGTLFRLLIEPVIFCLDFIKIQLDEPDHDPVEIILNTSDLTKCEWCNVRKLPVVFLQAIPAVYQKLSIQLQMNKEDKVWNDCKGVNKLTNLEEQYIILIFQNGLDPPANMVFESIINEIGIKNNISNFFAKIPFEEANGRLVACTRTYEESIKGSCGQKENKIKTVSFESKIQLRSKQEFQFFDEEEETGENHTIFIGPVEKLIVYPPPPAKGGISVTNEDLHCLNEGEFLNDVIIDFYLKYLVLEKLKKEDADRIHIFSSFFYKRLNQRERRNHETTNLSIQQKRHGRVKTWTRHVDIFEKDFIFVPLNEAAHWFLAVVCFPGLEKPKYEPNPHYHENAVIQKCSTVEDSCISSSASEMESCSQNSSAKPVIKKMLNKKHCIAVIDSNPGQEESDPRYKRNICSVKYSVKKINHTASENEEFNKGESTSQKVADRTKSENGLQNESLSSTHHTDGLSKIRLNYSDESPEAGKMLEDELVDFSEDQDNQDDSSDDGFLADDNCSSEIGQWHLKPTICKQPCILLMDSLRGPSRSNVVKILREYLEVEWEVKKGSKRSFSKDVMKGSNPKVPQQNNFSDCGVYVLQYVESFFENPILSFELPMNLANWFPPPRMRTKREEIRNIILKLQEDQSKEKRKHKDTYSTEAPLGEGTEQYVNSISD

[4] = HEp-2 cell cytotoxicity, dose response, cytotoxicity control for RSV inhibitor project, HTS (AID 2410); assay type: functional; details: human respiratory syncytial virus
[5] = target: T4, Sentrin-specific protease 7 (Homo sapiens, UniProt Q9BQF6); assay: SENP7 protease inhibitors, SAR follow-up, biochemical, luminescence, set 2 (AID 588600); assay type: functional
T4 sequence (Q9BQF6 whole entry): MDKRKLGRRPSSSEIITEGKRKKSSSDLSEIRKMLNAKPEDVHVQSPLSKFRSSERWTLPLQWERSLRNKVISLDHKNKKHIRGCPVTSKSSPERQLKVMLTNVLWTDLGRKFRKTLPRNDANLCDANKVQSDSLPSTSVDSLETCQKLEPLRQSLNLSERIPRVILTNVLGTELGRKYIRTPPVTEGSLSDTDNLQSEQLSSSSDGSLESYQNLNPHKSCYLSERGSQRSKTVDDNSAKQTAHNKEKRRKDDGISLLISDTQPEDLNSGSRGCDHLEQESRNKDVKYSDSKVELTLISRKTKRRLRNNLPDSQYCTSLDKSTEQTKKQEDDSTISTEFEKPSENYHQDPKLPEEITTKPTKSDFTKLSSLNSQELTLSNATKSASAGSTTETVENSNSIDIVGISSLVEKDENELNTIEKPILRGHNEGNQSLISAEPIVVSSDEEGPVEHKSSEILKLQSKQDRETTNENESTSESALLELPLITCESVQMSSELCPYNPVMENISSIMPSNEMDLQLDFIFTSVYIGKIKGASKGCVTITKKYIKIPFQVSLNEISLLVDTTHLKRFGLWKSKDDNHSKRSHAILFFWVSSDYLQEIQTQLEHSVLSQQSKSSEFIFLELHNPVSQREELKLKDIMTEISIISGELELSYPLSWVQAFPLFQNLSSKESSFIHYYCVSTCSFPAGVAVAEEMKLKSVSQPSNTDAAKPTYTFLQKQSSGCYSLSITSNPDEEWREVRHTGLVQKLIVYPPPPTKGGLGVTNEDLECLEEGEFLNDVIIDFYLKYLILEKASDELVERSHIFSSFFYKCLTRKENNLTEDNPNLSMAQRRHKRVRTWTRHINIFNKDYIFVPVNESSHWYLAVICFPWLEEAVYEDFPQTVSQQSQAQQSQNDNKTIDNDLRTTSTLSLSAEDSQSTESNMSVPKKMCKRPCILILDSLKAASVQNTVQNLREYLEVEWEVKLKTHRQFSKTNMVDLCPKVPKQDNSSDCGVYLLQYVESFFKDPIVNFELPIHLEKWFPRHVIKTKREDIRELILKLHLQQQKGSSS

[6] = Luminescence Cell-Based Dose Retest to Confirm Inhibitors of Cancer Stem Cells. [Related pubchem assays (depositor defined):AID2717, AID2721]; assay type: functional; details: Homo sapiens
[7] = target: T5, Melanin-concentrating hormone receptor 1 (Homo sapiens, UniProt Q99705); assay: Late-stage fluorescence-based counterscreen for antagonists of the G-protein coupled receptor 7 (GPR7): cell-based dose response assay to identify antagonists of the melanin-concentrating hormone receptor 1 (MCHR1) Set 6.; assay type: functional
[8] = target: T6, Neuropeptides B/W receptor type 1 (Homo sapiens, UniProt P48145); assay: GPR7 antagonist potency, late-stage follow-up, cell-based, fluorescence, dose response, set 6 (AID 588583); assay type: functional
T6 sequence (P48145 whole entry): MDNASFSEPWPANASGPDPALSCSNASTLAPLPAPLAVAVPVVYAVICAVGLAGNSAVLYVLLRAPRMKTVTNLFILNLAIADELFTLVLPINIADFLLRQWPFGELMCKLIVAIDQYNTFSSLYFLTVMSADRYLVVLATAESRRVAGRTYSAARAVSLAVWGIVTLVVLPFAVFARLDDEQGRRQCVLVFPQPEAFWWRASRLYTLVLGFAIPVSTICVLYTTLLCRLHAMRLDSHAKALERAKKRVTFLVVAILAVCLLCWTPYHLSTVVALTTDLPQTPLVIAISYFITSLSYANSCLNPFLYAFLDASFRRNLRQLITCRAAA

[9] = target: T5, Melanin-concentrating hormone receptor 1; assay: Late-stage fluorescence-based counterscreen for antagonists of the G-protein coupled receptor 7 (GPR7): cell-based dose response assay to identify antagonists of the melanin-concentrating hormone receptor 1 (MCHR1) Set 5.; assay type: functional
[10] = target: T6, Neuropeptides B/W receptor type 1; assay: GPR7 antagonist potency, late-stage follow-up, cell-based, fluorescence, dose response, set 5 (AID 588566); assay type: functional
[11] = target: Latent membrane protein 1 (Human herpesvirus 4 (strain B95-8), UniProt P03230); assay: TES1-eGFP NF-kB reporter inhibition versus Tet-On dsRED, dose response, selectivity assay for LMP1 NF-kB inhibitor project, imaging, HEK293T, dual-color eGFP/dsRED, cherry-picks (AID 588398); assay type: functional, cell-based
[12] = target: DNA dC->dU-editing enzyme APOBEC-3G (Homo sapiens, UniProt Q9HC16); assay: APOBEC3G deaminase inhibitors, SAR follow-up, biochemical, fluorescence, single-stranded DNA substrate (AID 602136); assay type: functional; details: read-out: IC50_Mean
[13] = target: DNA dC->dU-editing enzyme APOBEC-3A (Homo sapiens, UniProt P31941); assay: SAR analysis of small molecule inhibitors of APOBEC3A DNA Deaminase via a fluorescence-based single-stranded DNA deaminase assay.; assay type: functional; details: read-out: IC50_Mean
[14] = target: Sphingosine 1-phosphate receptor 3 (Homo sapiens, UniProt Q99500); assay: Dose Response Cell-Based Assay for Agonists of the Sphingosine 1-Phosphate Receptor 3 (S1P3): Purchased Analogues. [Related pubchem assays: 373, 439 ]; assay type: functional
[15] = target: Sphingosine 1-phosphate receptor 1 (Homo sapiens, UniProt P21453); assay: Dose Response Cell-Based Assay for Agonists of the Sphingosine 1-Phosphate Receptor 1 (S1P1): Purchased Analogues. [Related pubchem assays: 1192, 373, 439 ]; assay type: functional
[16] = target: T7, Sphingosine 1-phosphate receptor 2 (Homo sapiens, UniProt O95136); assay: Late-stage fluorescence-based dose-response cell-based counterscreen assay to identify agonists of the Sphingosine 1-Phosphate Receptor 3 (S1P3): Sphingosine 1-Phosphate Receptor 2 (S1P2) agonist assay.; assay type: functional
[17] = target: Sphingosine 1-phosphate receptor 4 (Homo sapiens, UniProt O95977); assay: Late-stage fluorescence-based dose-response cell-based counterscreen assay to identify agonists of the Sphingosine 1-Phosphate Receptor 3 (S1P3): Sphingosine 1-Phosphate Receptor 4 (S1P4) agonist assay.; assay type: functional
X-box-binding protein 1 = X-box-binding protein 1 (Homo sapiens, UniProt P17861); assay type: functional, Cricetulus griseus;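 note: confirmatory dose-response counter-screen serving a CHOP assay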
[18] = target: T7, Sphingosine 1-phosphate receptor 2; assay: Dose Response Cell-Based Assay for Agonists of the Sphingosine 1-Phosphate Receptor 2 (S1P2): Purchased Analogues. [Related pubchem assays: 1192, 373, 439 ]; assay type: functional
[19] = target: DNA damage-inducible transcript 3 protein (Mus musculus, UniProt P35639); assay type: functional, Cricetulus griseus
DNA damage-inducible transcript 3 protein, sequence (P35639 whole entry): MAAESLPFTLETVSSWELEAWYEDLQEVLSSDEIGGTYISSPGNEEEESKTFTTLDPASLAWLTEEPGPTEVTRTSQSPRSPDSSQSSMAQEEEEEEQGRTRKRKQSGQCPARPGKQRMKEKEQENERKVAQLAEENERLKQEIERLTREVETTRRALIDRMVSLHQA

T5 sequence (Q99705 whole entry): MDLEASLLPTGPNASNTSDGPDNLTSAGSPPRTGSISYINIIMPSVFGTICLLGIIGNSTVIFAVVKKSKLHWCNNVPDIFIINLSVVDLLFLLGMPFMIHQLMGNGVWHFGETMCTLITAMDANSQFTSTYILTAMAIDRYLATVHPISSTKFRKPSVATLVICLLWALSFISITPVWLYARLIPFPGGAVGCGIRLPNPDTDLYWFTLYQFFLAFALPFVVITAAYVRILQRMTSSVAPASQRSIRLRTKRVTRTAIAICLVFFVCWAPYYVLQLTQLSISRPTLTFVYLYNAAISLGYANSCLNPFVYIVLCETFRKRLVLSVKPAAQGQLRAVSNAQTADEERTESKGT
T7 sequence (O95136 whole entry): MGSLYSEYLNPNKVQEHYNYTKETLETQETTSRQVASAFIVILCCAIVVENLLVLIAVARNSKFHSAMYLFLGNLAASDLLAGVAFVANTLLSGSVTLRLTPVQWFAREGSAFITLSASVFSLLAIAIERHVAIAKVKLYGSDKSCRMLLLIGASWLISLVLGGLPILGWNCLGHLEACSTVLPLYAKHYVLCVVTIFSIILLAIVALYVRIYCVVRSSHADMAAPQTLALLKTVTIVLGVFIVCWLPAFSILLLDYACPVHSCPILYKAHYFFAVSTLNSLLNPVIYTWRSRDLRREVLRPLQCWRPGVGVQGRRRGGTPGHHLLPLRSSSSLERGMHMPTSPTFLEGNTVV
Sphingosine 1-phosphate receptor 1, sequence (P21453 whole entry): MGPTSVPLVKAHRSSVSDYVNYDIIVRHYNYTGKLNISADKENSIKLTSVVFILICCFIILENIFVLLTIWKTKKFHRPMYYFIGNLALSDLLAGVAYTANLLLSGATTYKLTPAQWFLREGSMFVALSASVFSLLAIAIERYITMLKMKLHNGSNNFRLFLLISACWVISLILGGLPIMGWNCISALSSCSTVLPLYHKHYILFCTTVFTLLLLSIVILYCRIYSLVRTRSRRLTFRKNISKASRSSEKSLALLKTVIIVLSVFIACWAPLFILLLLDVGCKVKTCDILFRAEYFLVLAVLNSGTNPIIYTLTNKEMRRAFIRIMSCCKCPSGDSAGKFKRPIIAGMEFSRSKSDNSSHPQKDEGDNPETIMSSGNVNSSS
Sphingosine 1-phosphate receptor 3, sequence (Q99500 whole entry): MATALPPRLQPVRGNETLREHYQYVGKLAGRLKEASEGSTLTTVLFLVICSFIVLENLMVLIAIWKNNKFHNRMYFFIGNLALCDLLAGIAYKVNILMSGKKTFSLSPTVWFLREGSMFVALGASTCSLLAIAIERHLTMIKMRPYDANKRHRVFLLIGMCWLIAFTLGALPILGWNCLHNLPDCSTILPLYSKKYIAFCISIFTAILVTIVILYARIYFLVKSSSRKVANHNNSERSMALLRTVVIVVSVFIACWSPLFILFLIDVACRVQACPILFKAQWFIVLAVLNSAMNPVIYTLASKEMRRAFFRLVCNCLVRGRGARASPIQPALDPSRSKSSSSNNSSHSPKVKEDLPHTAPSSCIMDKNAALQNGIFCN
DNA dC->dU-editing enzyme APOBEC-3A, sequence (P31941 whole entry): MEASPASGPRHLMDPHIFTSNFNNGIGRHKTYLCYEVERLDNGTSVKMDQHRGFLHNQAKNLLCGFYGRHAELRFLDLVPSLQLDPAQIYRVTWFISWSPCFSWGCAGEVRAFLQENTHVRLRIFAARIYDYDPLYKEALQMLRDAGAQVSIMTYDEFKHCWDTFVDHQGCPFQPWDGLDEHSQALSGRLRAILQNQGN
Sphingosine 1-phosphate receptor 4, sequence (O95977 whole entry): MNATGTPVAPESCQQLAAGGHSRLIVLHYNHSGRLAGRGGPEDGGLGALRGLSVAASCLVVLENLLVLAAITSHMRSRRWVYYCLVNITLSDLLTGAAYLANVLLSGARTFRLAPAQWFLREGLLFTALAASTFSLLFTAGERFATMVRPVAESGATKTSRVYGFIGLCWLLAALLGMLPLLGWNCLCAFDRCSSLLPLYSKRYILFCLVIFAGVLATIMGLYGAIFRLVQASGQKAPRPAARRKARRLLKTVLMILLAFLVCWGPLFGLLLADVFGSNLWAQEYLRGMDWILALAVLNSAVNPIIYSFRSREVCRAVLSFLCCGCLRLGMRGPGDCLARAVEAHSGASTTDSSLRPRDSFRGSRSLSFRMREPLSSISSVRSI
Neurotensin receptor type 1, sequence (P30989 whole entry): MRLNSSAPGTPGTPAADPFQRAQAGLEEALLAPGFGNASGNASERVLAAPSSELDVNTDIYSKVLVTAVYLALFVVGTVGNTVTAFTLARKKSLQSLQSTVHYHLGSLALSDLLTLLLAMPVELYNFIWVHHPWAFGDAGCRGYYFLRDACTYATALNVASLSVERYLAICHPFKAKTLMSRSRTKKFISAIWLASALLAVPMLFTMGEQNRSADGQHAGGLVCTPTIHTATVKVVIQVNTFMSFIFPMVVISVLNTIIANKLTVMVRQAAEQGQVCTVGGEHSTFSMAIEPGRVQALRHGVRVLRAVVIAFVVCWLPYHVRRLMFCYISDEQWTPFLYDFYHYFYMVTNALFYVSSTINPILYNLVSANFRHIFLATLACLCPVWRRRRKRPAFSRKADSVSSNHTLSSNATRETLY
X-box-binding protein 1, sequence (P17861 whole entry): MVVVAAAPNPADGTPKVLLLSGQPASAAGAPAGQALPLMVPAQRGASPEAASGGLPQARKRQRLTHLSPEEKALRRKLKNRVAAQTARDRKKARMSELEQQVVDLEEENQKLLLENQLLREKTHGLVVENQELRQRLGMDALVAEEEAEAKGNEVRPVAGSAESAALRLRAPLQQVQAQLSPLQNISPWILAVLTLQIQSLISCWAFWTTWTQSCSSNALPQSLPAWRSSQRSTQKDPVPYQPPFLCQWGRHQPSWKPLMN
Melanocortin receptor 4, sequence (P32245 whole entry): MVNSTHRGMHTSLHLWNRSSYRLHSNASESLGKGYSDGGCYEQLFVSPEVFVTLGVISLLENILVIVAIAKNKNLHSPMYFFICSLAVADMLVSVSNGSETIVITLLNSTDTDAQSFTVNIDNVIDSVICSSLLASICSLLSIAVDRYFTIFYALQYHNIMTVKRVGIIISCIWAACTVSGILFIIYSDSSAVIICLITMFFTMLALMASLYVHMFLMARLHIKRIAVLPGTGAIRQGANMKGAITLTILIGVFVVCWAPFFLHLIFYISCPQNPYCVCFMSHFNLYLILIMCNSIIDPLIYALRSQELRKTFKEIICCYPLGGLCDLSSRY
DNA dC->dU-editing enzyme APOBEC-3G, sequence (Q9HC16 whole entry): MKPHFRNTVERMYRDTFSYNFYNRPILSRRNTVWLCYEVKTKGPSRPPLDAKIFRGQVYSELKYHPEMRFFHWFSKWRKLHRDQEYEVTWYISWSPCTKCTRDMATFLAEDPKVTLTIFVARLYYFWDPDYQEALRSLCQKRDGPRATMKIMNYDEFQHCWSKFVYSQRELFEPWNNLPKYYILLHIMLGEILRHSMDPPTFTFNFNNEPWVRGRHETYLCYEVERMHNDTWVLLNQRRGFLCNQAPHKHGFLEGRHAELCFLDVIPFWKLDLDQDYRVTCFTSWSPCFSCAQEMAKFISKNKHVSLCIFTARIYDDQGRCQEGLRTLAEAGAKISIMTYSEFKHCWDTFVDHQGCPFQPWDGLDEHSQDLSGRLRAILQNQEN
Latent membrane protein 1, sequence (P03230 whole entry): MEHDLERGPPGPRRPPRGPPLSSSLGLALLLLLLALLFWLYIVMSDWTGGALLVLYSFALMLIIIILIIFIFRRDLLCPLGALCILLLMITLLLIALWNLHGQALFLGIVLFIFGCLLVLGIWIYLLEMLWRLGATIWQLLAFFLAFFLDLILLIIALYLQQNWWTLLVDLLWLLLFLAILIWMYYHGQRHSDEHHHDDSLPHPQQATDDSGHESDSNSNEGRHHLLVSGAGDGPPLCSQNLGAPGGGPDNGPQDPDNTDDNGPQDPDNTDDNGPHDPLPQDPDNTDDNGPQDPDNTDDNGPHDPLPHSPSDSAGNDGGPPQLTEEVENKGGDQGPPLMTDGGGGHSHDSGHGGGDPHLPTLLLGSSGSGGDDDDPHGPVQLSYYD

SMILES: O=C(N/N=C/c1c[nH]c2ccccc12)C1CC1(c1ccccc1)c1ccccc1 (configuration not stated)
- EC50 [1]: 12.3 µM (active)
- EC50 (Melanocortin receptor 4): > 89.2 µM (inactive)
- IC50 [2]: > 99 µM (inactive)
- IC50 (Caspase-3): > 99 µM (inactive)
- IC50 [3]: > 99 µM (inactive)
- CC50 [4]: 16 µM (active)
- IC50 [5]: > 99 µM (inactive)
- AC50 [6]: 4.64 µM (active)

SMILES: O=C(CSc1nc2cccnc2[nH]1)Nc1cccc(Br)c1
- IC50 [12]: > 99 µM (inactive)
- IC50 [13]: > 99 µM (inactive)

Now from value to molecule, other results behind:

- IC50 [7]: 0.706 µM (active)
- IC50 [8]: 0.706 µM (active)
SMILES: N#CC(c1c(F)cccc1Cl)c1c(Cl)cnn(Cc2cccc3ccccc23)c1=O (configuration not stated)

- IC50 [9]: > 20 µM (inactive)
- IC50 [10]: 0.234 µM (active)
SMILES: CCOc1ccc(C(C#N)c2c(Cl)cnn(Cc3cccc4ccccc34)c2=O)cc1 (configuration not stated)

- AC50 [11]: 70.2 µM (active)
SMILES: CCN1C(=O)[C@@H]2[C@@H](c3ccc(-c4ccc(Cl)c(Cl)c4)cc3)N3CCC[C@@]3(C(=O)OC)[C@@H]2C1=O

- EC50 [14]: 0.243 µM (active)
- EC50 [15]: > 50 µM (not active)
- EC50 [16]: > 50 µM (inactive)
- EC50 [17]: > 50 µM (inactive)
- Absolute IC50 (XBP1) (X-box-binding protein 1): 10 µM
- EC50 [18]: > 10 µM (not active)
SMILES: CCCc1cc(C(=O)N(C2CCCCC2)C2CCCCC2)no1
- Absolute IC50 (CHOP) [19]: 10 µM
